The text below walks through data of patent US20070232615A1, “Chemical Compounds” (priority 2004, published 2007).

One data set has as its target T1, human CXCR4 (Homo sapiens, UniProt P61073).
T1 construct: expressed in transfected cells; host or cells: HEK-293 cells (stably expressing human macrophage scavenger receptor class A type 1), transduced with human CXCR4 BacMam and Gqi5 BacMam baculoviruses
The data set can be described thus: Functional FLIPR assay (block of SDF-1 alpha induced [Ca2+]i change). Type of data set: cell-based. As to conditions: HEK-293 cells with human CXCR4 and Gqi5 BacMam; antagonism of SDF-1 alpha; read-out: Functional assay (pIC50) (converted). The method, then: Human embryonic kidney (HEK-293) cells were maintained and harvested as described above. Cells were plated in 96-well, black clear bottom, poly-lysine coated plates at a concentration of 40,000 cells per well in a final volume of 100 ul containing human CXCR4 BacMam (MOI=25) and Gqi5 BacMam (MOI=12.5). The cells were incubated at 37° C., 5% CO2, 95% humidity for 24 h to allow for protein expression.
After the required incubation time the cells were washed once with 50 ul of fresh serum-free DMEM/F12 media containing probenicid. 50 ul of dye solution was then added to the cells (Calcium Plus Assay Kit Dye; Molecular Devices) was dissolved in 200 ml of the above probenicid/BSA containing media and incubated for 1 h. Cell plates were transferred to a Fluorometric Imaging Plate Reader (FLIPR). Upon addition the effect of the compounds on the change in [Ca^2+]i was examined to determine if the compounds were agonists or antagonists (ability to block SDF-1 alpha activity) at the CXCR4 receptor. IC50 values are determined and pKb values are calculated using the Leff and Dougall equation: KB=IC50/((2+([agonist]/EC50ˆb)ˆ1/b−1) Where IC50 is that defined by the antagonist concentration-response curve [agonist] is the EC80 concentration of agonist used EC50 is that defined by the agonist concentration-response curve b is the slope of the agonist concentration-response curve.

Data set [1] concerns HOS (hCXCR4/hCCR5/hCD4/pHIV-LTR-luciferase) cells and HEK-293 cells expressing HIV-1 gp160 (HXB2 strain). Description: Cell/cell fusion assay (luciferase). It is filed as cell-based. As to conditions: Homo sapiens, HEK293; 24 h, luciferase readout; read-out: Fusion assay (pIC50) (converted). From the text: The complete coding sequences of HIV-1 tat (GenBank Accession No. X07861) and rev (GenBank Accession No. M34378) were cloned into pcDNA3.1 expression vectors containing G418 and hygromycin resistance genes, respectively. The complete coding sequence of the HIV-1 (HXB2 strain) gp160 envelope gene (nucleotide bases 6225-8795 of GenBank Accession No. K03455) was cloned into plasmid pCRII-TOPO. The three HIV genes were additionally inserted into the baculovirus shuttle vector, pFastBacMam1, under the transcriptional control of the CMV promoter. A construction of the pHIV-I LTR containing mutated NFkB sequences linked to the luciferase reporter gene was prepared by digesting pcDNA3.1, containing the G418 resistance gene, with Nru I and Bam HI to remove the CMV promoter. LTR-luc was then cloned into the Nru I/Bam HI sites of the plasmid vector. Plasmid preparations were performed after the plasmids were amplified in Escherichia coli strain DH5-alpha. The fidelity of the inserted sequences was confirmed by double-strand nucleotide sequencing using an ABI Prism Model 377 automated sequencer.
BacMam Baculovirus Generation
Recombinant BacMam baculoviruses were constructed from pFastBacMam shuttle plasmids by using the bacterial cell-based Bac-to-Bac system. Viruses were propagated in Sf9 (Spodoptera frugiperda) cells cultured in Hink's TNM-FH Insect media supplemented with 10% (v/v) fetal bovine serum and 0.1% (v/v) pluronic F-68 according to established protocols.
Human osteosarcoma (HOS) cells that naturally express human CXCR4 were transfected with human CCR5, human CD4 and the pHIV-LTR-luciferase plasmid using FuGENE 6 transfection reagent. Single cells were isolated and grown under selection condition in order to generate a stable HOS (hCXCR4/hCCR5/hCD4/pHIV-LTR-luciferase) clonal cell line. The cells were maintained in Dulbeccos modified Eagles media supplemented with 10% fetal calf serum (FCS), G418 (400 ug/ml), puromycin (1 ug/ml), mycophenolic acid (40 ug/ml), xanthine (250 ug/ml) and hypoxanthine (13.5 ug/ml) to maintain a selection pressure for cells expressing the LTR-luciferase, hCCR5 and hCD4, respectively. Human embryonic kidney (HEK-293) cells stably transfected to express the human macrophage scavenging receptor (Class A, type 1; GenBank Accession No. D90187), were maintained in DMEM/F-12 media (1:1) supplemented with 10% FCS and 1.5 ug/ml puromycin. The expression of this receptor by the HEK-293 cells enhances their ability to stick to tissue culture treated plasticware.
Transduction of HEK-293 cells
HEK-293 cells were harvested using enzyme-free cell dissociation buffer. The cells were resuspended in DMEM/F-12 media supplemented with 10% FCS and 1.5 ug/ml and counted. Tranductions were performed by direct addition of BacMam baculovirus containing insect cell media to cells. The cells were simultaneously transduced with BacMam baculovirus expressing HIV-1 tat, HIV-1 rev and HIV-1 gp160 (from the HXB2 HIV strain). Routinely an MOI of 10 of each virus was added to the media containing the cells. 2 mM butyric acid was also added to the cells at this stage to increase protein expression in transduced cells. The cells were subsequently mixed and seeded into a flask at 30 million cells per T225. The cells were incubated at 37° C., 5% CO2, 95% humidity for 24 h to allow for protein expression.
Cell/Cell Fusion Assay Format
HEK and HOS cells were harvested in DMEM/F-12 media containing 2% FCS and DMEM media containing 2% FCS, respectively, with no selection agents added. Compounds were plated as 1 ul spots in 100% DMSO on a 96-well CulturPlate plates. HOS cells (50 ul) were added first to the wells, followed immediately by the HEK cells (50 ul). The final concentration of each cell type was 20,000 cells per well. Following these additions, the cells were returned to a tissue culture incubator (37° C.; 5% CO2/95% air) for an additional 24 h.
Measurement of Luciferase Production […]

Data set [2] is described as follows: Compound cytotoxicity in the absence of virus (CellTiter-Glo). The following applies: human; HOS cells, no virus; read-out: Cytotox (pIC50) (converted). It is filed as cell-based. As to the method: (§1) Compounds were profiled against two HIV-1 viruses, the M-tropic (CCR5 utilizing) Ba-L strain and the T-tropic (CXCR4 utilizing) IIIB strain. Both viruses were propagated in human peripheral blood lymphocytes. Compounds were tested for there ability to block infection of the HOS cell line (expressing hCXCR4/hCCR5/hCD4/pHIV-LTR-luciferase) by either HIV-1 Ba-L or HIV-1 IIIB. Compound cytotoxicity was also examined in the absence of virus addition.
(§2) HOS cells (expressing hCXCR4/hCCR5/hCD4/pHIV-LTR-luciferase) were harvested and diluted in Dulbeccos modified Eagles media supplemented with 2% FCS and non-essential amino acid to a concentration of 60,000 cells/ml. The cells were plated into 96-well plates (100 ul per well) and the plates were placed in a tissue culture incubator (37° C.; 5% CO2/95% air) for a period of 24 h.
(§3) Subsequently, 50 ul of the desired drug solution (4 times the final concentration) was added to each well and the plates were returned to the tissue culture incubator (37° C.; 5% CO2/95% air) for 1 h. Following this incubation 50 ul of diluted virus was added to each well (approximately 2 million RLU per well of virus). The plates were returned to the tissue culture incubator (37° C.; 5% CO2/95% air) and were incubated for a further 96 h.
(§4) Following this incubation the endpoint for the virally infected cultures was quantified following addition of Steady-Glo Luciferase assay system reagent (Promega, Madison, Wis.). Cell viability or non-infected cultures was measured using a CellTiter-Glo luminescent cell viability assay system (Promega, Madison, Wis.). All luminescent readouts are performed on a Topcount luminescence detector (Packard, Meridien, Conn.).
Background: ATP-based viability assays read luminescence as a measure of living cells.

A further data set has as its system HIV-1 IIIB. Description: HOS HIV-1 infectivity assay, IIIB strain. It is filed as cell-based. As to conditions: Human immunodeficiency virus 1; HOS cells, HIV-1 IIIB (T-tropic, CXCR4 utilizing), 96 h; read-out: HOS (3B). The method, then:
HOS HIV-1 Infectivity Assay
as §1
HOS HIV-1 Infectivity Assay Format
as §2, §3, §4

The next data set deals with HIV. The data set can be described thus: HOS HIV infectivity assay (Table 2, strain not given). It is filed as cell-based. As to conditions: Human immunodeficiency virus 1, read-out: Activity Level. The gist of the method: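 HOS cells expressing hCXCR4/hCCR5/hCD4 and an HIV-LTR-luciferase reporter were preincubated with compound for 1 h in DMEM/2% FCS. They were then infected with HIV-1 Ba-L or IIIB (about 2 million RLU/well) for 96 h at 37° C. Infection was read by luciferase luminescence, and viability in uninfected cultures by CellTiter-Glo.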

For a further data set, the system named is T-tropic HIV. As to conditions: patients dual tropic or with only the T-tropic form of the virus; cited from earlier work.

T1 sequence (P61073 whole entry): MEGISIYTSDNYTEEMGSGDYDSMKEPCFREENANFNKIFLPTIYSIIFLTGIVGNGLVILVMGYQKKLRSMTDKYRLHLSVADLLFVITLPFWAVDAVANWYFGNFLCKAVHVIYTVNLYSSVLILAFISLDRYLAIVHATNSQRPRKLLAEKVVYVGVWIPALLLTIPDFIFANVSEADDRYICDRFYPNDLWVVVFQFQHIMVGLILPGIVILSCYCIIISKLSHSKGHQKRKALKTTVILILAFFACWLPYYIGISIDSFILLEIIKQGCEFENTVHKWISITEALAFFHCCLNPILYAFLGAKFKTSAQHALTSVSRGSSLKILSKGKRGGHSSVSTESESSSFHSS

Consider `CN(C)Cc1ccc(-c2cccc3nc(CN(C)C4CCCc5cccnc54)cn23)cc1` (stereo not drawn) [Example 18, N-[(5-{4-[(Dimethylamino)methyl]phenyl}imidazo[1,2-a]pyridin-2-yl)methyl]-N-methyl-5,6,7,8-tetrahydro-8-quinolinamine], for which the IC50 was 38.9 nM at human CXCR4, 148 nM in data set [1], 65 nM in the data set on HIV-1 IIIB and under 100 nM in the data set on HIV. For the same compound, the IC50 at 96 h in data set [2] was over 100000 nM.

Regarding `CN1CCN(c2cccc3nc(CN(C)C4CCCc5cccnc54)cn23)CC1` (stereo not drawn) [Example 6, N-Methyl-N-{[5-(4-methyl-1-piperazinyl)imidazo[1,2-a]pyridin-2-yl]methyl}-5,6,7,8-tetrahydro-8-quinolinamine], the IC50 is 7.94 nM at human CXCR4, 3.31 nM in data set [1], 6.3 nM in the data set on HIV-1 IIIB and under 100 nM in the data set on HIV. For the same compound, the IC50 at 96 h in data set [2] was over 100000 nM.

Turning to `c1cc(CN2CCCNCCNCCCNCC2)ccc1CN1CCCNCCNCCCNCC1` [AMD-3100], in the data set on T-tropic HIV, the “T-tropic HIV viral load” value was “significantly reduce T-tropic HIV viral load”.

Turning to `CN1CCN(c2cccc3nc(CN(CC(F)(F)F)C4CCCc5cccnc54)cn23)CC1` (stereo not drawn) [Example 16, N-{[5-(4-Methyl-1-piperazinyl)imidazo[1,2-a]pyridin-2-yl]methyl}-N-(2,2,2-trifluoroethyl)-5,6,7,8-tetrahydro-8-quinolinamine], the IC50 at human CXCR4 was 4.37 nM; in data set [1], 417 nM; in the data set with HIV-1 IIIB, 145 nM; in the data set with HIV, 100 to 500 nM. In addition, the IC50 at 96 h in data set [2] is over 100000 nM.

As for `CC(C)N(Cc1cn2c(N3CCN(C)CC3)cccc2n1)C1CCCc2cccnc21` (stereo not drawn) [Example 14, N-(1-Methylethyl)-N-{[5-(4-methyl-1-piperazinyl)imidazo[1,2-a]pyridin-2-yl]methyl}-5,6,7,8-tetrahydro-8-quinolinamine], the IC50 is 2 nM at human CXCR4, 21.9 nM in data set [1], 13 nM in the data set with HIV-1 IIIB and under 100 nM with HIV. In addition, the IC50 at 96 h in data set [2] is over 100000 nM.

For `CC(C)N1CCN(c2cccc3nc(CN(CC(F)(F)F)C4CCCc5cccnc54)cn23)CC1` (stereo not drawn) [Example 17, N-({5-[4-(1-Methylethyl)-1-piperazinyl]imidazo[1,2-a]pyridin-2-yl}methyl)-N-(2,2,2-trifluoroethyl)-5,6,7,8-tetrahydro-8-quinolinamine], the IC50 is 8.91 nM on human CXCR4, 2140 nM in data set [1], 300 nM with HIV-1 IIIB and 100 to 500 nM in the data set with HIV. In addition, the IC50 at 96 h in data set [2] was over 100000 nM.

Consider `CN(Cc1cn2c(N3CCNCC3)cccc2n1)C1CCCc2cccnc21` (stereo not drawn) [Example 10, N-Methyl-N-{[5-(1-piperazinyl)imidazo[1,2-a]pyridin-2-yl]methyl}-5,6,7,8-tetrahydro-8-quinolinamine], for which the IC50 on human CXCR4 is 6.92 nM; in data set [1], 17.8 nM; in the data set on HIV-1 IIIB it was 20 nM; in the data set with HIV, under 100 nM. Moreover, in data set [2], the IC50 at 96 h is over 100000 nM.

With `CC(C)N1CCN(c2cccc3nc(CN(C)C4CCCc5cccnc54)cn23)CC1` (stereo not drawn) [Example 8, N-Methyl-N-({5-[4-(1-methylethyl)-1-piperazinyl]imidazo[1,2-a]pyridin-2-yl}methyl)-5,6,7,8-tetrahydro-8-quinolinamine], the IC50 at human CXCR4 is 9.77 nM; in data set [1] it was 22.4 nM; in the data set with HIV-1 IIIB, 16 nM; with HIV, under 100 nM. In addition, the IC50 at 96 h in data set [2] is over 100000 nM.
